The source made the active and inactive calls. No cut-off for these calls is given here.
Tests used:
Mast cell [1] = experiment: Inhibition of compound 48/80-challenged Sprague-Dawley rat peritoneal mast cell degranulation assessed as beta-glucuronidase release up to 100 uM administered 3 mins prior to compound 48/80 challenge measured after 15 mins; type: functional, cell-based
Mus musculus = experiment: Suppression of anti-dinitrophenyl-coupled albumin-induced passive cutaneous anaphylaxis reaction-associated ear edema in mouse assessed as reduction of volume of plasma exudation at 30 umol/kg, ip administered 30 mins prior to DNP-albumin challenge measured after 45 mins; type: functional, organism-based
Mast cell [2] = experiment: Inhibition of compound 48/80-challenged Sprague-Dawley rat peritoneal mast cell degranulation assessed as beta-glucuronidase release at 30 uM administered 3 mins prior to compound 48/80 challenge measured after 15 mins; type: functional, cell-based
Mast cell [3] = experiment: Inhibition of compound 48/80-challenged Sprague-Dawley rat peritoneal mast cell degranulation assessed as beta-glucuronidase release at 10 uM administered 3 mins prior to compound 48/80 challenge measured after 15 mins; type: functional, cell-based

Compound	Activity (Mast cell [1])	Activity (Mus musculus)	Activity (Mast cell [2])	Activity (Mast cell [3])
COc1ccc2c(=O)c3ccoc3n(CCC(C)(C)O)c2c1	inactive	Active		
COc1ccc2c(=O)c3ccoc3n(CC=C(C)C)c2c1		Active	Active	Active

— ChEMBL document CHEMBL1159214, “The antiallergic activities of synthetic acrophylline and acrophyllidine” (J Nat Prod, 1995)
